Where two headings read alike, the source gives them in different places.
Columns and labels:
ATXN2-luc [1] = assay: Secondary assays: ATXN2-luc in S2 and H2 cells, 12 doses, Bright-Glo; assay type: cell-based, human; details: summary data; for IC50: ATXN2-luc luciferase assays in H2 and S2 cells, 12 doses plus a zero dose, read-out: Mean IC50; for min ATXN2-luc (%): minimum ATXN2-luc signal over 12 doses, H2 and S2 cells
CMV-luc [2] = assay: Secondary assays: CMV-luc in SC cells, Bright-Glo; assay type: cell-based, human; details: minimum CMV-luc signal in SC cells over 12 doses; summary data
Description: (§1) Compounds were plated at 2× concentrations in phenol red–free DMEM in 25 μl in 384-well plates with each compound dose plated in triplicate. An equal volume of S2, H2, or SC cells (24,000 cells/well) suspended in phenol red–free DMEM with 10% fetal bovine serum and 1× penicillin/streptomycin were added. Cells were grown 24 h and then assayed first by using the CellTiter-Fluor reagent (20 μl) followed by the addition of Bright-Glo (65 μl) luciferase assay, using a multimode plate reader (Beckman; DT880). Values were reported as the mean ± SD with n = 3. IC50s were determined by the Hill coefficient method using an online tool (https://www.aatbio.com/tools/ic50-calculator).

in vitro = details: human
Description: (§2) The values for H2 and S2 were used as replicates to calculate IC50s and to assess cell viability.
as §1

ATXN2-luc [3] = assay: MSSR pilot screen: ATXN2-luc luciferase assay (Bright-Glo) in H2 cells, single 10 μM dose; assay type: cell-based, human; details: for SD from mean (ATXN2-luc, Z-score): H2 cells, single dose (title: 10 μM compound), overnight; for ¦Score/1SD¦: absolute score divided by 1SD (0.891 or 0.9)
ATXN2-luc [4] = assay: MSSR hit retest: ATXN2-luc luciferase assay, average of H2 and S1 cells (1 and 10 uM); assay type: cell-based, human; details: Homo sapiens; for activity at 1 µM: read-out: H2&S1 ave luc 1uM; for activity at 10 µM: head line r3 10uM
Text: (§3) Supplement mmc2.xlsx, sheet "43 annotated compounds"

H2 and S1 cells = assay: Paired MTT viability assay, average of H2 and S1 cells (1 and 10 uM); assay type: cell-based, human; details: Homo sapiens
Text: as §3

ATXN2-luc [5] = assay: NCATS qHTS (LOPAC pilot, primary and confirmation): ATXN2-luc in S2 cells, 1536-well, Steady-Glo; assay type: cell-based, human
Procedure, shortened: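 […] S2 cells expressing ATXN2-luc in phenol red–free DMEM screened in 1536-well qHTS format. Luciferase read by Steady-Glo luminescence after 5 min at room temperature (2 s exposure), multiplexed with CellTiter-Fluor viability.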

CMV-luc [6] = assay: MSSR counterscreen: CMV-luc expression in HC cells; assay type: cell-based, human; details: for CMV-luc, averages as percent of no compound control: HC cells, n=4 wells
S2, H2 or SC cells = assay: Secondary assays: multiplexed cell viability (CellTiter-Fluor)
Description: as §2, §1

[7] = pilot screen at 10 µM compound, H2 cells expressing ATXN2-luc
[8] = Homo sapiens, LOPAC library screening optimization, logarithm of AC50 (negative values), read-out: Log AC50 (converted)
[9] = Homo sapiens, LOPAC library screening optimization, read-out: AC50
[10] = LOPAC library screening optimization, read-out: AC50
[11] = 1 uM compound, average of H2 and S1 cells
[12] = average of H2 and S1 cells, read-out: H2&S1 ave luc 10uM
[13] = 1 uM compound, read-out: H2&S1 ave MTT 1uM
[14] = 10 uM compound, read-out: H2&S1 ave MTT 10uM

SMILES | IC50 (ATXN2-luc [1]; Homo sapiens) [nM] | min ATXN2-luc (%) (ATXN2-luc [1]) | min SC luc (%) (CMV-luc [2]) | viability at 24 h (in vitro) [%] | other results
S=C(NCc1ccc2c(c1)OCO2)N1CCN(c2ncnc3c2oc2ccccc23)CC1 [NCGC00263158-01, MP470] | 3020 | 55.0637 | 74.2577 | 87.7 | –
CC(C)c1cc(C(=O)N2Cc3ccc(CN4CCN(C)CC4)cc3C2)c(O)cc1O [NCGC00346674-01, AT13387] | 178 | 22.3111 | 71.1894 | 90.6 | –
CNC(=O)c1cc(Oc2ccc(NC(=O)Nc3cc(C(C)(C)C)nn3-c3ccc4ncccc4c3)c(F)c2)ccn1 [NCGC00263172-01, DCC-2036] | 3730 | 27.0713 | 60.5803 | 56.6 | –
CC[C@@]1(O)C(=O)OCc2c1cc1n(c2=O)Cc2cc3ccccc3nc2-1 [Camptothecine (S+)] | 40 | 14.3715 | 42.7084 | 92.1 | SD from mean (ATXN2-luc, Z-score) (ATXN2-luc [3]): -5.283 SD
CN(C)CCN1C(=O)c2cccc3cc(N)cc(c23)C1=O [NCGC00346513-01, amonafide] | 1840 | 21.7231 | 69.6561 | 68.2 | –
O=c1[nH]c(=O)n([C@H]2C[C@H](O)[C@@H](CO)O2)cc1F [NCGC00023722-07, Floxuridine] | 166 | 25.6595 | 37.5061 | 97.9 | –
C[C@H]1O[C@@H](O[C@H]2[C@@H](O)C[C@H](O[C@H]3[C@@H](O)C[C@H](O[C@H]4CC[C@@]5(C)[C@H](CC[C@@H]6[C@@H]5C[C@@H](O)[C@]5(C)[C@@H](C7=CC(=O)OC7)CC[C@]65O)C4)O[C@@H]3C)O[C@@H]2C)C[C@H](O)[C@@H]1O [Digoxin] | – | 9.041 | 107.579 | 67.9 | activity at 1 µM (ATXN2-luc [4]): 47%; activity (ATXN2-luc [4]; read-out: H2&S1 ave luc 10uM): 12%; viability at 1 µM (H2 and S1 cells; read-out: H2&S1 ave MTT 1uM, 1 uM compound): 78.7%; viability at 10 µM (H2 and S1 cells; read-out: H2&S1 ave MTT 10uM, 10 uM compound): 73.5%; SD from mean (ATXN2-luc, Z-score) (ATXN2-luc [3]): -3.904 SD; SD from mean (pilot screen) (ATXN2-luc [3]; pilot screen): -3.904 SD; SD from mean (pilot screen) (ATXN2-luc [3]; [7]): -3.904; ¦Score/1SD¦ (ATXN2-luc [3]; pilot screen): 4.38
CC1(C)CC(=O)c2c(C(F)(F)F)nn(-c3ccc(C(N)=O)c(N[C@H]4CC[C@H](O)CC4)c3)c2C1 [NCGC00346633-01, SNX 2112] | – | – | 82.2819 | 83.3 | –
C=CCn1c(=O)c2cnc(Nc3ccc(N4CCN(C)CC4)cc3)nc2n1-c1cccc(C(C)(C)O)n1 [NCGC00263183-01, MK 1775] | 343 | 21.7344 | 63.0447 | 77.9 | –
O=C(NC1CCNCC1)c1[nH]ncc1NC(=O)c1c(Cl)cccc1Cl [NCGC00263091-01, AT7519] | 162 | 14.5407 | 103.668 | 50.3 | –
CC[C@H](CO)Nc1nc(NCc2ccccc2)c2ncn(C(C)C)c2n1 [NCGC00094374-05, roscovitine] | – | 57.3224 | 82.4469 | 77.8 | AC50 (ATXN2-luc [5]; [8]): 28.2 µM; AC50 (ATXN2-luc [5]; [9]): 28.2 µM; Log AC50 (ATXN2-luc [5]; LOPAC library screening optimization, logarithm of AC50 (negative values)): -4.5; AC50 (ATXN2-luc [5]; [10]): 31.6 µM
COc1cc2ncn(-c3cc(OCc4ccccc4C(F)(F)F)c(C(N)=O)s3)c2cc1OC [NCGC00242217-04, GW843682X] | 9770 | 57.1311 | 87.9923 | 75.5 | –
C=CCNC1=C2C[C@@H](C)C[C@H](OC)[C@H](O)[C@@H](C)/C=C(\C)[C@H](OC(N)=O)[C@@H](OC)/C=C\C=C(/C)C(=O)NC(=CC1=O)C2=O [NCGC00163424-03, tanespimycin] | 442 | 23.7455 | 96.2287 | 83.6 | –
CNC(=O)c1nn(C)c2c1C(C)(C)Cc1cnc(Nc3ccc(N4CCN(C)CC4)cc3)nc1-2 [NCGC00346673-01, PHA-848125] | 436 | 15.8759 | 96.2246 | 74.4 | –
NC(=O)Nc1cc(-c2cccc(F)c2)sc1C(=O)N[C@H]1CCCNC1 [NCGC00242481-02, AZD7762] | – | – | – | 78.1 | –
COc1ccc(CN2CCN(C(c3ccc(F)cc3)c3ccc(F)cc3)CC2)c(OC)c1OC [LOMERIZINE DiHCl] | – | – | – | – | activity at 1 µM (ATXN2-luc [4]; [11]): 102%; activity at 10 µM (ATXN2-luc [4]; [12]): 55%; viability at 1 µM (H2 and S1 cells; [13]): 101%; viability at 10 µM (H2 and S1 cells; [14]): 37.6%; CMV-luc, averages as percent of no compound control (CMV-luc [6]; 0.1 uM compound): 97.7058% of no compound control; CMV-luc, averages as percent of no compound control (CMV-luc [6]; 1 uM compound): 102.901% of no compound control; CMV-luc, averages as percent of no compound control (CMV-luc [6]; 10 uM compound): 80.3815% of no compound control; inhibition at 1 µM (CMV-luc [6]; Homo sapiens, read-out: CMV-luc inhibition @ 1 uM): 0%; inhibition at 10 µM (CMV-luc [6]; Homo sapiens, read-out: CMV-luc inhibition @ 10 uM): 20%; ATXN2 luc activity (call) (CMV-luc [6]; summary call for the 12 pilot compounds tested on CMV-luc): Unclear; SD from mean (ATXN2-luc, Z-score) (ATXN2-luc [3]): -2.782 SD; SD from mean (pilot screen) (ATXN2-luc [3]; pilot screen): -2.782 SD; SD from mean (pilot screen) (ATXN2-luc [3]; pilot screen, H2 cells expressing ATXN2-luc, single dose printed as 10 μM compound): -2.782; ¦Score/1SD¦ (ATXN2-luc [3]; pilot screen): 3.09
Cc1cc(Nc2cc(CN3CCOCC3)c3nc(C)c(Cc4ccc(Cl)cc4F)n3n2)n[nH]1 [NCGC00345461-02, LY2784544] | 21100 | 23.1503 | 67.1857 | 81.6 | –
C[C@@H]1O[C@@H](O[C@H]2C[C@@H](O)[C@]3(CO)[C@H]4[C@H](O)C[C@]5(C)[C@@H](C6=CC(=O)OC6)CC[C@]5(O)[C@@H]4CC[C@]3(O)C2)[C@H](O)[C@H](O)[C@H]1O [OUABAIN] | 122 | 6.982 | 122.219 | 74.3 | activity at 1 µM (ATXN2-luc [4]; [11]): 14%; activity at 10 µM (ATXN2-luc [4]; [12]): 12%; viability at 1 µM (H2 and S1 cells; [13]): 51.8%; viability at 10 µM (H2 and S1 cells; [14]): 60.4%; AC50 (ATXN2-luc [5]; [8]): < 0.09 µM; AC50 (ATXN2-luc [5]; [9]): < 0.09 µM; Curve Class (ATXN2-luc [5]; LOPAC library (1,280 compounds) screening optimization, signed sub-classes (-1.1, -2.2, -3 ...)): -1.1; AC50 (ATXN2-luc [5]; [10]): 0.112 µM; SD from mean (ATXN2-luc, Z-score) (ATXN2-luc [3]): -3.832 SD; SD from mean (pilot screen) (ATXN2-luc [3]; pilot screen): -3.832 SD; SD from mean (pilot screen) (ATXN2-luc [3]; [7]): -3.832; ¦Score/1SD¦ (ATXN2-luc [3]; pilot screen): 4.26
CN[C@@H]1CN(c2ccc3c(=O)c(C(=O)O)cn(-c4nccs4)c3n2)C[C@@H]1OC [NCGC00346437-01] | – | 15.1045 | 64.0102 | – | IC50 (ATXN2-luc [1]): 488 nM; min viability (%) (S2, H2 or SC cells; minimum viability, multiplexed CellTiter-Fluor, over 12 doses, summary data): 71.6056%
CC1(C)CC(=O)c2c(C(F)(F)F)nn(-c3ccc(C(N)=O)c(NC4CCC(OC(=O)CN)CC4)c3)c2C1 (stereo not drawn) [NCGC00346640-01, PF 04929113] | – | 19.9722 | 69.7843 | – | IC50 (ATXN2-luc [1]): 88 nM; min viability (%) (S2, H2 or SC cells): 87.146%
Cc1ccc(-c2ncn(-c3ccc(Nc4nccc(-c5cccc(N6CCOCC6)c5)n4)cc3)n2)cn1 [NCGC00263146-01] | – | 15.6493 | 82.9006 | – | IC50 (ATXN2-luc [1]): 1300 nM; min viability (%) (S2, H2 or SC cells): 65.3662%
O=C(Nc1cccc(Nc2ncc(Br)c(NCCc3cnc[nH]3)n2)c1)N1CCCC1 [NCGC00346687-01, BX-912] | – | 54.9395 | 100.351 | – | IC50 (ATXN2-luc [1]): 8890 nM; min viability (%) (S2, H2 or SC cells): 84.397%
N[C@@H](Cc1ccc(N(CCCl)CCCl)cc1)C(=O)O [NCGC00090757-05, Melphalan] | – | 44.8372 | 79.9664 | 89.3 | –
O=C1NC(=O)/C(=C/c2ccc3nccc(-c4ccncc4)c3c2)S1 [NCGC00346509-01, GSK 1059615] | 57500 | 51.4419 | 85.5514 | 75.5 | –
